Assay results taken from US20250012802A1, “SYSTEMS AND METHODS FOR PREDICTING RESPONSE TO ORAL MINOXIDIL FOR THE TREATMENT OF ANDROGENETIC ALOPECIA” (Follea International, priority 2023, published 2025).
Several values for one entry are separate records, joined by “and”; a condition that tells them apart may be missing. Equal values may be shown once.

Tested on: androgenetic alopecia
Assay: clinical response to oral minoxidil for androgenetic alopecia
Format: in vivo, human
Set-up: Response: scale not given here
Details: for subjects who responded to oral minoxidil: 5 mg men and 1.25 mg women
From the text: Clinical trials with minoxidil for the treatment of androgenetic alopecia have shown statistically significant results for maintenance and growth of hair. […] As described herein, the assessment of hair re-growth is based on one or more of the following parameters: patient self assessment, physician assessment using a standardized scale, global photography assessment, hair diameter measurement, average hair length measurement, average hair diameter measurement, and hair weight measurements. The current inventions provide a method of using biochemical variations in minoxidil sulfotransferase activity as a drug response marker for oral and/or topical minoxidil treatment of androgenetic alopecia. Based on the minoxidil sulfotransferase activity level, the method disclosed herein allows a physician or the patient to select the appropriate treatment and dosage thereof for the treatment of androgenetic alopecia.
In one embodiment, the test is conducted by placing a hair follicle in an assay. The hair follicle may be collected prior to minoxidil therapy, or after start of minoxidil therapy. The follicle is placed in a solution containing minoxidil. The assay is then conducted as described above, and is examined to determine whether there is a SULT1A1 response. The results are then used as a predictor for patients who will respond well to minoxidil, and who will respond better to oral minoxidil versus topical application of minoxidil. […] The first column is optical density resulting from the colorimetric testing. The second column indicates response.
A total of 123 subjects recruited. Overall among subjects with OD<0.37 85% responded to oral minoxidil (5 mg men and 1.25 mg women). Overall among subjects with OD>0.37 43% responded to oral minoxidil (5 mg men and 1.25 mg women). This was statistically significant p=0.0088 (Fischer Exact Test). In this cohort, oral minoxidil only worked on 42% of women and 73% of men.

Nc1cc(N2CCCCC2)nc(N)[n+]1[O-] [minoxidil]
share of cohort on whom oral minoxidil worked (men): 73%
Response (response of the individual patient with the OD of the same line, 0/1 not defined in the patent): 1 (15×) and 0 (11×)
subjects who responded to oral minoxidil (subjects with OD<0.37): 85%
subjects who responded to oral minoxidil (subjects with OD>0.37): 43%
share of cohort on whom oral minoxidil worked (women): 42%
